Results published in patent US6737383B1, “Herbicidal oxadiazolidines” (priority 1999, dated 2004).

Tests used:
wild oat = test: Test B pre/postemergence wild oat; format: in vivo, Avena fatua
In short: (§1)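 Response is a visual 0-to-10 score relative to untreated plants, where 0 means no effect and 10 means complete control, taken twelve to sixteen days after application. Treatments went onto soil at planting and onto foliage of 1- to 4-leaf plants, using a surfactant-containing non-phytotoxic solvent.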

velvetleaf = test: Test B pre/postemergence velvetleaf; format: in vivo, Abutilon theophrasti
In short: as §1

morningglory = test: Test B pre/postemergence morningglory; format: in vivo, Ipomoea hederacea
In short: as §1

pigweed = test: Test B pre/postemergence pigweed; format: in vivo, Amaranthus retroflexus
In short: as §1

rice = test: Test B flood test rice; format: in vivo, Oryza sativa
In short: (§2)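 Flood test on plants grown to the 2-leaf stage; treated plants kept in greenhouse twelve to sixteen days, then visually rated against controls on a 0 (no effect) to 10 (complete control) scale.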

giant foxtail = test: Test B pre/postemergence giant foxtail; format: in vivo, Setaria faberii
In short: as §1

smallflower flatsedge = test: Test B flood test smallflower flatsedge; format: in vivo, Cyperus difformis
In short: as §2

corn = test: Test B pre/postemergence corn; format: in vivo, Zea mays
In short: as §1

purple nutsedge = test: Test B pre/postemergence purple nutsedge; format: in vivo, Cyperus rotundus
In short: as §1

sugar beet = test: Test B pre/postemergence sugar beet; format: in vivo, Beta vulgaris
In short: as §1

soybean = test: Test B pre/postemergence soybean; format: in vivo, Glycine max
In short: as §1

duck salad = test: Test B flood test duck salad; format: in vivo, Heteranthera limosa
In short: as §2

crabgrass = test: Test B pre/postemergence crabgrass; format: in vivo, Digitaria sanguinalis
In short: as §1

cocklebur = test: Test B pre/postemergence cocklebur; format: in vivo, Xanthium strumarium
In short: as §1

rape = test: Test B pre/postemergence rape; format: in vivo, Brassica napus
In short: as §1

wheat = test: Test B pre/postemergence wheat; format: in vivo, Triticum aestivum
In short: as §1

[1] = Postemergence, Rate 62 g/ha, scale of 0 to 10, 0 is no effect, 10 is complete control
[2] = Postemergence, Rate 500 g/ha, scale of 0 to 10 where 0 is no effect and 10 is complete control
[3] = Preemergence, Rate 62 g/ha, scale 0 to 10 (0 no effect, 10 complete control)
[4] = Preemergence, Rate 125 g/ha, scale 0 to 10, 0 is no effect, 10 is complete control
[5] = Preemergence, Rate 500 g/ha, scale of 0 to 10 where 0 is no effect and 10 is complete control
[6] = Rate 250 g/ha, Postemergence, scale of 0 to 10 where 0 is no effect and 10 is complete control
[7] = Postemergence, Rate 125 g/ha, scale 0 to 10, 0 is no effect, 10 is complete control
[8] = Rate 62 g/ha, flood test species, Pre-emergence, visual evaluation after twelve to sixteen days
[9] = Rate 125 g/ha, under heading Pre-emergence, flood test species, visual evaluation after twelve to sixteen days
[10] = Rate 250 g/ha, Pre-emergence (flood test species), scale 0 to 10, 0 is no effect, 10 is complete control
[11] = Rate 500 g/ha, Pre-emergence section of Table B, 0 to 10 scale (0 no effect, 10 complete control)

CCCCn1c(=O)on(C(=O)N(c2ccccc2)C(C)C)c1=O [Compound 556]
Wild oats plant response rating (wild oat; [1]): 2
Plant response rating, Wild oats (wild oat; [2]): 2
Wild oats plant response rating (wild oat; [3]): 0
Wild oats plant response rating (wild oat; [4]): 0
Wild oats plant response rating (0 to 10 scale) (wild oat; Preemergence, Rate 250 g/ha): 4
Wild oats plant response rating (wild oat; [5]): 6
Plant response rating, Wild oats (wild oat; [6]): 2
Velvetleaf plant response rating (velvetleaf; [1]): 0
Plant response rating, Velvetleaf (velvetleaf; [2]): 2
Velvetleaf plant response rating (velvetleaf; [3]): 0
Velvetleaf plant response rating (velvetleaf; [4]): 2
Velvetleaf plant response rating (0 to 10 scale) (velvetleaf; Preemergence, Rate 250 g/ha): 3
Velvetleaf plant response rating (velvetleaf; [5]): 3
Plant response rating, Velvetleaf (velvetleaf; [6]): 0
Morningglory plant response rating (morningglory; [1]): 0
Morningglory plant response rating (morningglory; [7]): 2
Plant response rating, Morningglory (morningglory; [2]): 10
Morningglory plant response rating (morningglory; [3]): 0
Morningglory plant response rating (morningglory; [4]): 0
Morningglory plant response rating (0 to 10 scale) (morningglory; Preemergence, Rate 250 g/ha): 0
Morningglory plant response rating (morningglory; [5]): 0
Plant response rating, Morningglory (morningglory; [6]): 4
Redroot pigweed plant response rating (pigweed; [1]): 3
Plant response rating, Redroot pigweed (pigweed; [2]): 4
Redroot pigweed plant response rating (pigweed; [3]): 0
Redroot pigweed plant response rating (pigweed; [4]): 5
Redroot pigweed plant response rating (0 to 10 scale) (pigweed; Preemergence, Rate 250 g/ha): 5
Redroot pigweed plant response rating (pigweed; [5]): 5
Plant response rating, Redroot pigweed (pigweed; [6]): 3
Plant response rating, Rice (0 to 10 scale, 0 is no effect, 10 is complete control) (rice; [8]): 0
Rice plant response rating (0 to 10 scale, 0 is no effect, 10 is complete control) (rice; [9]): 0
Rice plant response rating (rice; [10]): 0
Rice plant response rating (rice; [11]): 0
Giant foxtail plant response rating (giant foxtail; [1]): 4
Giant foxtail plant response rating (giant foxtail; [7]): 7
Plant response rating, Giant foxtail (giant foxtail; [2]): 9
Giant foxtail plant response rating (giant foxtail; [3]): 9
Giant foxtail plant response rating (giant foxtail; [4]): 9
Giant foxtail plant response rating (0 to 10 scale) (giant foxtail; Preemergence, Rate 250 g/ha): 10
Giant foxtail plant response rating (giant foxtail; [5]): 10
Plant response rating, Giant foxtail (giant foxtail; [6]): 9
Plant response rating, S. Flatsedge (0 to 10 scale, 0 is no effect, 10 is complete control) (smallflower flatsedge; [8]): 0
S. Flatsedge plant response rating (0 to 10 scale, 0 is no effect, 10 is complete control) (smallflower flatsedge; [9]): 0
S. Flatsedge plant response rating (smallflower flatsedge; [10]): 0
S. Flatsedge plant response rating (smallflower flatsedge; [11]): 0
Corn plant response rating (corn; [1]): 0
Corn plant response rating (corn; [7]): 0
Plant response rating, Corn (corn; [2]): 0
Corn plant response rating (corn; [3]): 0
Corn plant response rating (corn; [4]): 0
Corn plant response rating (0 to 10 scale) (corn; Preemergence, Rate 250 g/ha): 0
Corn plant response rating (corn; [5]): 0
Plant response rating, Corn (corn; [6]): 0
Nutsedge plant response rating (purple nutsedge; [1]): 0
Nutsedge plant response rating (purple nutsedge; [7]): 0
Plant response rating, Nutsedge (purple nutsedge; [2]): 0
Nutsedge plant response rating (purple nutsedge; [3]): 0
Nutsedge plant response rating (purple nutsedge; [4]): 0
Nutsedge plant response rating (0 to 10 scale) (purple nutsedge; Preemergence, Rate 250 g/ha): 0
Nutsedge plant response rating (purple nutsedge; [5]): 0
Plant response rating, Nutsedge (purple nutsedge; [6]): 0
Sugarbeets plant response rating (sugar beet; [1]): 0
Plant response rating, Sugarbeets (sugar beet; [2]): 0
Sugarbeets plant response rating (sugar beet; [3]): 0
Sugarbeets plant response rating (sugar beet; [4]): 0
Sugarbeets plant response rating (0 to 10 scale) (sugar beet; Preemergence, Rate 250 g/ha): 0
Sugarbeets plant response rating (sugar beet; [5]): 0
Plant response rating, Sugarbeets (sugar beet; [6]): 0
Soybean plant response rating (soybean; [1]): 0
Plant response rating, Soybean (soybean; [2]): 8
Soybean plant response rating (soybean; [3]): 0
Soybean plant response rating (soybean; [4]): 0
Soybean plant response rating (0 to 10 scale) (soybean; Preemergence, Rate 250 g/ha): 0
Soybean plant response rating (soybean; [5]): 0
Plant response rating, Soybean (soybean; [6]): 3
Plant response rating, Ducksalad (0 to 10 scale, 0 is no effect, 10 is complete control) (duck salad; [8]): 0
Ducksalad plant response rating (0 to 10 scale, 0 is no effect, 10 is complete control) (duck salad; [9]): 0
Ducksalad plant response rating (duck salad; [10]): 0
Ducksalad plant response rating (duck salad; [11]): 0
Crabgrass plant response rating (crabgrass; [1]): 0
Crabgrass plant response rating (crabgrass; [7]): 2
Plant response rating, Crabgrass (crabgrass; [2]): 2
Crabgrass plant response rating (crabgrass; [3]): 9
Crabgrass plant response rating (crabgrass; [4]): 9
Crabgrass plant response rating (0 to 10 scale) (crabgrass; Preemergence, Rate 250 g/ha): 9
Crabgrass plant response rating (crabgrass; [5]): 10
Plant response rating, Crabgrass (crabgrass; [6]): 2
Cocklebur plant response rating (cocklebur; [1]): 0
Cocklebur plant response rating (cocklebur; [7]): 0
Plant response rating, Cocklebur (cocklebur; [2]): 0
Cocklebur plant response rating (cocklebur; [3]): 0
Cocklebur plant response rating (cocklebur; [4]): 0
Cocklebur plant response rating (0 to 10 scale) (cocklebur; Preemergence, Rate 250 g/ha): 0
Cocklebur plant response rating (cocklebur; [5]): 0
Plant response rating, Cocklebur (cocklebur; [6]): 0
Rape plant response rating (rape; [1]): 0
Rape plant response rating (rape; [7]): 0
Plant response rating, Rape (rape; [2]): 2
Rape plant response rating (rape; [3]): 0
Rape plant response rating (rape; [4]): 3
Rape plant response rating (0 to 10 scale) (rape; Preemergence, Rate 250 g/ha): 3
Rape plant response rating (rape; [5]): 8
Plant response rating, Rape (rape; [6]): 0
Wheat plant response rating (wheat; [1]): 0
Plant response rating, Wheat (wheat; [2]): 3
Wheat plant response rating (wheat; [3]): 0
Wheat plant response rating (wheat; [4]): 0
Wheat plant response rating (0 to 10 scale) (wheat; Preemergence, Rate 250 g/ha): 3
Wheat plant response rating (wheat; [5]): 4
Plant response rating, Wheat (wheat; [6]): 2
